# Experimental data published in ChEMBL document CHEMBL1145498, “A systematic interaction map of validated kinase inhibitors with Ser/Thr kinases” (Proc Natl Acad Sci U S A, 2007).
# Assays:
# [1] = molecular target: T1, Serine/threonine-protein kinase Chk1 (Homo sapiens, UniProt O14757); test: Inhibition of Chk1
# T1 sequence (O14757 whole entry): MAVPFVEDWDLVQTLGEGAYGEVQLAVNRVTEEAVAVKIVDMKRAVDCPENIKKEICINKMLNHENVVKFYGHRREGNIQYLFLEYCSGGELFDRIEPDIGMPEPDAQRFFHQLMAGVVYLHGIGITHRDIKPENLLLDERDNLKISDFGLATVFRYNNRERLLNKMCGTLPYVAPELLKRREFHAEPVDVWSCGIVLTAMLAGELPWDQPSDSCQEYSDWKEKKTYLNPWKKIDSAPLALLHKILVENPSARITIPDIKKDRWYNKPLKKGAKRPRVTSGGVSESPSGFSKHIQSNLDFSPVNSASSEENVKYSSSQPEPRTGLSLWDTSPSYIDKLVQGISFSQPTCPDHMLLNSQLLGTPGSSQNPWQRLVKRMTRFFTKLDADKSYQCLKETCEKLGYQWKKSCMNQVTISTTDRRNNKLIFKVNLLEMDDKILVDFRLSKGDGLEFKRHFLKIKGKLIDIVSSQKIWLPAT
# [2] = molecular target: 5'-AMP-activated protein kinase catalytic subunit alpha-2 (Homo sapiens) (UniProt P54646)
# Chain of 5'-AMP-activated protein kinase catalytic subunit alpha-2 (Homo sapiens) (P54646 whole entry, looked up): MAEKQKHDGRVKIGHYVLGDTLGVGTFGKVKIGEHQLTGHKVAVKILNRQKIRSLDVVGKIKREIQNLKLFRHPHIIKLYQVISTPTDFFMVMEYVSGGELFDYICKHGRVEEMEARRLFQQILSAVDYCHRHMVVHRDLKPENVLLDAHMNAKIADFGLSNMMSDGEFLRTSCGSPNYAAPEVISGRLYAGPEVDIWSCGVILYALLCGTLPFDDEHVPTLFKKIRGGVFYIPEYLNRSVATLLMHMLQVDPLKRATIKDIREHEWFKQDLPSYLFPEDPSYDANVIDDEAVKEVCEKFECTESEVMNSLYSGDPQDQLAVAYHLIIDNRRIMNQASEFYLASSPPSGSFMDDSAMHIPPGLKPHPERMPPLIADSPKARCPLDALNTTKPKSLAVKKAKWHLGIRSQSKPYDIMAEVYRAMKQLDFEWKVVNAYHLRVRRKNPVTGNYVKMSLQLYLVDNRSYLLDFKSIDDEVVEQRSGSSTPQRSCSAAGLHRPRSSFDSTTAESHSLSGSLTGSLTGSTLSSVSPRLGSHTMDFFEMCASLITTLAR
# [3] = molecular target: Calcium/calmodulin-dependent protein kinase type 1D (Homo sapiens) (UniProt Q8IU85)
# Chain of Calcium/calmodulin-dependent protein kinase type 1D (Homo sapiens) (Q8IU85 whole entry, looked up): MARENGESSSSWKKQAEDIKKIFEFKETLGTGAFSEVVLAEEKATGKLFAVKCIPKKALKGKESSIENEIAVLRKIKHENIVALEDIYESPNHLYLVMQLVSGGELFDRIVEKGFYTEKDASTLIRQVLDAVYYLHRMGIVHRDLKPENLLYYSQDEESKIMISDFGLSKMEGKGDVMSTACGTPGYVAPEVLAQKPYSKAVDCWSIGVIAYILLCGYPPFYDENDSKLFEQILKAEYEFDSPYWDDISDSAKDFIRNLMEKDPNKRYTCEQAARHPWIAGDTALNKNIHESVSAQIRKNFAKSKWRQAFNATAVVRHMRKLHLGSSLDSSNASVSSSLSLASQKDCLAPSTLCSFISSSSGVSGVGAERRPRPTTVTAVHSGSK
# [4] = molecular target: Cyclin-dependent kinase 2 (Homo sapiens, UniProt P24941)
# [5] = molecular target: Serine/threonine-protein kinase Chk2 (Homo sapiens, UniProt O96017)
# Chain of Serine/threonine-protein kinase Chk2 (O96017 whole entry): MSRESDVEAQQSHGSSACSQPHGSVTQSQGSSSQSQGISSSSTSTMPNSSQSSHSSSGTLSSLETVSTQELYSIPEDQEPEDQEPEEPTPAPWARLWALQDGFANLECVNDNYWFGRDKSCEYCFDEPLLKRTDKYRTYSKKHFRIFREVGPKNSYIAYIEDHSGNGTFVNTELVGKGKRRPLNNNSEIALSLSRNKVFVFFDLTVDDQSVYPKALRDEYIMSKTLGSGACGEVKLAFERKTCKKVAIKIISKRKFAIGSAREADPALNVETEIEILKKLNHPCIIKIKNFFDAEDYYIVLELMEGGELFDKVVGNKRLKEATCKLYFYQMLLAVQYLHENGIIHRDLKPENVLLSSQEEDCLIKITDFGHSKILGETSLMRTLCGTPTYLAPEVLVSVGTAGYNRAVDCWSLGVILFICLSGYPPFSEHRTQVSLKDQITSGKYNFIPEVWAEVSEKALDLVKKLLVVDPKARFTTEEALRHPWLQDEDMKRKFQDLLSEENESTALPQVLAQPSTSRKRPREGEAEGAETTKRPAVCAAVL
# [6] = molecular target: Dual specificity protein kinase CLK3 (Homo sapiens) (UniProt P49761)
# Chain of Dual specificity protein kinase CLK3 (Homo sapiens) (P49761 whole entry, looked up, canonical isoform): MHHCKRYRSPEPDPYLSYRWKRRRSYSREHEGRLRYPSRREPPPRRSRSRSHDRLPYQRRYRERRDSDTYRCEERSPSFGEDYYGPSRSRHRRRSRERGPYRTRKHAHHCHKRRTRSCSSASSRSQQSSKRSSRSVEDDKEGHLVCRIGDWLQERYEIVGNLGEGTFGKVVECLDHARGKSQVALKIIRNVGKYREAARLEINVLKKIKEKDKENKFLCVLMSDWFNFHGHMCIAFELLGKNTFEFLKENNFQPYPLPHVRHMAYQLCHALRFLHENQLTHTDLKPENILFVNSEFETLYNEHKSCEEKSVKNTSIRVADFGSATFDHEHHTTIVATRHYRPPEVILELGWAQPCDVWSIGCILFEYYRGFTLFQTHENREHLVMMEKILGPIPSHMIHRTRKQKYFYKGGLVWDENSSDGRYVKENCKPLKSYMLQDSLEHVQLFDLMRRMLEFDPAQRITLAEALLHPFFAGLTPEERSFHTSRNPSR
# [7] = molecular target: Casein kinase I isoform gamma-2 (Homo sapiens) (UniProt P78368)
# Chain of Casein kinase I isoform gamma-2 (Homo sapiens) (P78368 whole entry, looked up, canonical isoform): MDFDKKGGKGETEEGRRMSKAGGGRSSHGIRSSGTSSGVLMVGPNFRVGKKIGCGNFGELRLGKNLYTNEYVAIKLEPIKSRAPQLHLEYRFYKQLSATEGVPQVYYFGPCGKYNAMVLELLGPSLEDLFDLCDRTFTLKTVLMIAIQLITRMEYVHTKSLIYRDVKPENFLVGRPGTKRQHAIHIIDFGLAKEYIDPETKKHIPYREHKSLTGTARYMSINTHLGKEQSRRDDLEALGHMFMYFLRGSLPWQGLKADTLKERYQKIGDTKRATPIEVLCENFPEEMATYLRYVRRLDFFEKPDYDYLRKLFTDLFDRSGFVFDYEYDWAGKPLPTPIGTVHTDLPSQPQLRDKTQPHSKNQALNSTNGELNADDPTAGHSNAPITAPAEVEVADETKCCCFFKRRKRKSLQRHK
# [8] = molecular target: Mitogen-activated protein kinase 3 (Homo sapiens, UniProt P27361)
# Chain of Mitogen-activated protein kinase 3 (P27361 whole entry): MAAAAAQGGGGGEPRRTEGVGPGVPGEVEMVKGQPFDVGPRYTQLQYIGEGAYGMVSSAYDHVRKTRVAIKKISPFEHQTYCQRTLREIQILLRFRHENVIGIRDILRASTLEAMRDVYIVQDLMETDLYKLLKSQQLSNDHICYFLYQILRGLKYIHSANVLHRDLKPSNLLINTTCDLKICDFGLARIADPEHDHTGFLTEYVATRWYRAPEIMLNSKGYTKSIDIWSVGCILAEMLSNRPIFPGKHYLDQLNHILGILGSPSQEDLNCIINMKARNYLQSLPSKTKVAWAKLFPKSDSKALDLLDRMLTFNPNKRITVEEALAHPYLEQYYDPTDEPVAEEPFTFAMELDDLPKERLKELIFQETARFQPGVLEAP
# [9] = molecular target: Serine/threonine-protein kinase pim-1 (Homo sapiens) (UniProt P11309)
# Chain of Serine/threonine-protein kinase pim-1 (Homo sapiens) (P11309 whole entry, looked up): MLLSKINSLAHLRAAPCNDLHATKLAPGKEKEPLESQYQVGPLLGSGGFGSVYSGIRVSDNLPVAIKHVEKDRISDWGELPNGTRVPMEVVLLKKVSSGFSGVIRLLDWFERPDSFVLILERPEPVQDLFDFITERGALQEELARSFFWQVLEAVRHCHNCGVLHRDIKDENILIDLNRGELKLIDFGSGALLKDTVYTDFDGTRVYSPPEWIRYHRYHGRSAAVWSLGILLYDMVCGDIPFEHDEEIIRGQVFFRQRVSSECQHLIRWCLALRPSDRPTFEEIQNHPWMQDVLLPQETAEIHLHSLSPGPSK
# [10] = molecular target: T2, Serine/threonine-protein kinase PLK4 (Homo sapiens) (UniProt O00444)
# T2 sequence (whole entry): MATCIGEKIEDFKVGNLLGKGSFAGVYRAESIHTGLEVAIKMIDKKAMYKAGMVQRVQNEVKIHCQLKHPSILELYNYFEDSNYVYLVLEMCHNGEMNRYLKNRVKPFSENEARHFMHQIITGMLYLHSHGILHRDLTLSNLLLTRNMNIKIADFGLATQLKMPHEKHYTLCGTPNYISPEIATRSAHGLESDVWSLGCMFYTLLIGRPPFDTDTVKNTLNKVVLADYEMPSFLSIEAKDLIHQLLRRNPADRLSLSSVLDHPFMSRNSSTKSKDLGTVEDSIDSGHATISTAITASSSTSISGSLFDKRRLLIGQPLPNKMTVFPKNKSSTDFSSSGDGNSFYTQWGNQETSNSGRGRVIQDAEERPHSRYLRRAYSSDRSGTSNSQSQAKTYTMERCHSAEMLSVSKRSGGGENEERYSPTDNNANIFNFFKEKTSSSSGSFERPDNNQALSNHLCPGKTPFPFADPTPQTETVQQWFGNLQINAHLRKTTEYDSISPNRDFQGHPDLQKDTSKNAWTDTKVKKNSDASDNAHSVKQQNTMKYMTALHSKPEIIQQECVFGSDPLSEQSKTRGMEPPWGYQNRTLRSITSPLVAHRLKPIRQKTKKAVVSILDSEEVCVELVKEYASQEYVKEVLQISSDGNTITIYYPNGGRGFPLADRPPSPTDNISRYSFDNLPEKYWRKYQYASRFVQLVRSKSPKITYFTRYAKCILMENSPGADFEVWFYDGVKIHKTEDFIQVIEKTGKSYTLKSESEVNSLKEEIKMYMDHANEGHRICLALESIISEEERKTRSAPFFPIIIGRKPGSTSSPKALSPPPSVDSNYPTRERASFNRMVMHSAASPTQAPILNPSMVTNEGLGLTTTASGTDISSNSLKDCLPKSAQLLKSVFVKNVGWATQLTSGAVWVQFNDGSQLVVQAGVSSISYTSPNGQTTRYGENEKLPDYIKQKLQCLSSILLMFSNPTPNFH
# [11] = molecular target: Serine/threonine-protein kinase 38 (Homo sapiens) (UniProt Q15208)
# Chain of Serine/threonine-protein kinase 38 (Homo sapiens) (Q15208 2-465 limits assumed): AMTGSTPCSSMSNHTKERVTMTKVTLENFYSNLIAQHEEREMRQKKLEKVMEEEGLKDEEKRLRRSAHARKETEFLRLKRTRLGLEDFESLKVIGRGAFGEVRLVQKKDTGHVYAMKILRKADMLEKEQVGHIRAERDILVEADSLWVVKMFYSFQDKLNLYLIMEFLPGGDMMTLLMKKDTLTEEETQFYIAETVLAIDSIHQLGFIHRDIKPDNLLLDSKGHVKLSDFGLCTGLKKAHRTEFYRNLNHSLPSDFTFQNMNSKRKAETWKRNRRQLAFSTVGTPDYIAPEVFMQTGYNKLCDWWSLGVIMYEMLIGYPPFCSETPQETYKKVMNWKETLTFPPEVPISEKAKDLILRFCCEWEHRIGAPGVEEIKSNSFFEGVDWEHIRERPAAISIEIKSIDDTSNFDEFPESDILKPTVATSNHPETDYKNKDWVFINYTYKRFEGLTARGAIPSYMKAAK
SMILES,IC50 [1] [nM],ΔTm [2] [°C],ΔTm [3] [°C],ΔTm [4] [°C],ΔTm [5] [°C],ΔTm [6] [°C],ΔTm [7] [°C],ΔTm [8] [°C],ΔTm [9] [°C],ΔTm [10] [°C],ΔTm [11] [°C]
O=C1NC(=O)c2c1c1c3ccccc3[nH]c1n1cncc21 [ISOGRANULATIMIDE],100,3.6,1,5.2,6.6,2.3,3.6,2,9,3.2,2.4
CN1CCc2[nH]c(=S)c(C#N)c(-c3cccs3)c2C1,1400,0.4,1.3,0,5.3,-0.2,5.2,0.6,1.4,10.7,0.5
NC1=N/C(=C2/CCNC(=O)c3[nH]ccc32)C(=O)N1 [DEBROMOHYMENIALDISINE],3000,-0.5,0,0.7,1.7,4.5,3.5,0.6,0.7,0.9,0.7
